Reference: ChEMBL document CHEMBL1201862, “PubChem BioAssay data set” (2004)
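All cell lines were grown in 96-well plates and treated with compound for 48 hours. GI50 = concentration required for 50% inhibition of growth.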 The source made the active and inactive calls. Cut-off read from the data, not from the text of the source: active = GI50 up to about 1.1 µM and inactive = higher.

Assays:
Test in all cases: DTP human tumour cell line panel, 48 h
[1] = test system: NCI-H522
[2] = test system: MOLT-4
[3] = test system: SF-539
[4] = test system: CAKI-1
[5] = test system: SNB-75
[6] = test system: 786-0
[7] = test system: OVCAR-5
[8] = test system: UACC-62
[9] = test system: SW-620
[10] = test system: A498
[11] = test system: HT-29
[12] = test system: UACC-257
[13] = test system: SK-OV-3
[14] = test system: ACHN
[15] = test system: U-251
[16] = test system: K562
[17] = test system: SK-MEL-2

Measured: GI50

C[N+]1(C)C/C(=C\c2ccncc2)C(=O)/C(=C/c2ccncc2)C1
inactive: [1] 19.6 µM | [2] > 100 µM | [3] > 100 µM | [4] > 100 µM | [5] > 100 µM | [6] > 100 µM | [7] > 100 µM | [8] > 100 µM | [9] 52.7 µM | [10] > 100 µM | [11] > 100 µM | [12] > 100 µM | [13] > 100 µM | [14] > 100 µM | [15] 85.5 µM

O=C(Nc1ccc(Cl)cc1C(=O)O)c1ccc([N+](=O)[O-])cc1
inactive: [2] 22.4 µM | [3] 14.5 µM | [5] 45.4 µM | [6] 13.4 µM | [16] 20.8 µM | [7] 22.5 µM | [8] 14.5 µM | [9] 29.7 µM | [10] 9.77 µM | [11] 18.9 µM | [12] 18.6 µM | [13] 18.2 µM | [14] 17.1 µM | [17] 3.72 µM | [15] 18.8 µM

COC[C@H](C)/N=C/N1CCc2ccccc2C1(Cc1ccccc1)Cc1ccccc1
inactive: [1] 12.7 µM | [2] 10.4 µM | [3] 18.2 µM | [4] 16.3 µM | [5] 17.8 µM | [6] 16.5 µM | [16] 6.97 µM | [8] 26.9 µM | [9] 22.6 µM | [11] 5.07 µM | [12] 13.8 µM | [13] 16.9 µM | [14] 21.2 µM | [17] 10.6 µM | [15] 13.8 µM

Nc1c(-c2nc3ccccc3s2)[n+]([O-])c2ccccc2[n+]1[O-]
inactive: [1] 22 µM | [2] 32.7 µM | [3] 29.9 µM | [4] 25.8 µM | [5] 26.7 µM | [6] 32.1 µM | [16] 45.8 µM | [7] > 100 µM | [8] 33.8 µM | [9] 43.5 µM | [10] 33.2 µM | [11] 37 µM | [12] 30.8 µM | [13] 37 µM | [14] 24.6 µM | [17] 29.1 µM | [15] 38.9 µM

O=C1CC23CC(=O)CC2(C1)c1ccccc1C3=O (centres undefined)
inactive: [1] > 100 µM | [2] > 100 µM | [3] > 100 µM | [4] > 100 µM | [5] > 100 µM | [6] > 100 µM | [16] > 100 µM | [7] > 100 µM | [8] > 100 µM | [9] > 100 µM | [11] > 100 µM | [12] > 100 µM | [13] > 100 µM | [14] > 100 µM | [17] > 100 µM | [15] > 100 µM

COc1ccc(C(=O)N2c3ccccc3N(C)n3cccc3C2CC(=O)O)cc1 (centres undefined)
inactive: [1] > 100 µM | [2] > 100 µM | [3] > 100 µM | [4] > 100 µM | [5] > 100 µM | [6] > 100 µM | [16] > 100 µM | [7] > 100 µM | [8] > 100 µM | [9] > 100 µM | [10] > 100 µM | [11] > 100 µM | [12] > 100 µM | [13] > 100 µM | [14] > 100 µM | [17] > 100 µM

Cc1noc(C)c1CCCOC1COc2ccccc2OCCOCCOc2ccccc2OC1
inactive: [1] > 100 µM | [3] > 100 µM | [4] > 100 µM | [5] 65.8 µM | [6] > 100 µM | [16] > 100 µM | [7] > 100 µM | [8] 27.5 µM | [9] > 100 µM | [10] > 100 µM | [11] > 100 µM | [12] > 100 µM | [13] > 100 µM | [14] > 100 µM | [17] > 100 µM | [15] > 100 µM

COc1ccc(-c2nnc(-c3c(C)n(C)n(-c4ccccc4)c3=O)o2)cc1
inactive: [1] > 100 µM | [2] > 100 µM | [3] > 100 µM | [5] > 100 µM | [6] > 100 µM | [16] > 100 µM | [8] > 100 µM | [9] > 100 µM | [10] > 100 µM | [11] > 100 µM | [12] > 100 µM | [13] > 100 µM | [14] > 100 µM | [17] > 100 µM | [15] > 100 µM

C/C(=N/NC(=O)c1ccccc1O)c1ccc(/C(C)=N\NC(=O)c2ccccc2O)c2nc3cc(C)c(C)cc3nc12
inactive: [1] > 100 µM | [2] > 100 µM | [3] > 100 µM | [5] 38.7 µM | [6] > 100 µM | [16] > 100 µM | [7] > 100 µM | [8] > 100 µM | [9] > 100 µM | [10] > 100 µM | [11] > 100 µM | [12] > 100 µM | [13] > 100 µM | [14] > 100 µM | [17] > 100 µM | [15] > 100 µM

Cc1ccc(NC(=O)C(=O)C2C(=O)NC(=O)NC2=O)cc1C
inactive: [1] > 100 µM | [2] > 100 µM | [3] > 100 µM | [4] > 100 µM | [5] > 100 µM | [6] > 100 µM | [16] > 100 µM | [7] > 100 µM | [8] > 100 µM | [9] > 100 µM | [11] > 100 µM | [12] > 100 µM | [13] > 100 µM | [14] > 100 µM | [17] > 100 µM | [15] > 100 µM

O=C(NCCCN1CCN(CCCNC(=O)c2cccc3ccccc23)CC1)c1cccc2ccccc12
inactive: [2] > 100 µM | [3] 54.7 µM | [4] 51.3 µM | [5] 20.9 µM | [6] 44.1 µM | [16] 41.4 µM | [7] > 100 µM | [8] > 100 µM | [9] > 100 µM | [10] > 100 µM | [11] 41.2 µM | [12] > 100 µM | [13] 23 µM | [14] > 100 µM | [17] > 100 µM | [15] 97.5 µM

CCOC(=O)CC1=N/C(=N/c2cc(Cl)ccc2Cl)SC1
inactive: [1] 76.4 µM | [3] > 100 µM | [4] > 100 µM | [5] 78 µM | [6] > 100 µM | [16] 42.5 µM | [7] > 100 µM | [8] > 100 µM | [9] > 100 µM | [10] > 100 µM | [11] 54.1 µM | [12] > 100 µM | [13] > 100 µM | [14] > 100 µM | [17] > 100 µM | [15] > 100 µM
